In the supplement of paper PMC10011410:
± gives the standard deviation of the averaged measurements.

Assays:
U-2 OS [1] = experiment: intracellular GSH:GSSG ratio (calculated); higher = more reduced glutathione pool; settings: 24 h
Method: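 Intracellular glutathione in U-2 OS cells after 24 h compound treatment at 5, 10 and 20 uM (some at 40 and 80 uM). Total glutathione and GSSG were measured with the GSH/GSSG-Glo kit, and the GSH:GSSG ratio was calculated. Mean of five technical replicate plates.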

U-2 OS [2] = experiment: cell painting activity score (Mahalanobis distance from DMSO wells); higher = stronger morphological phenotype; settings: 24 h
Method in brief: (§1)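 U-2 OS cells were seeded at about 1,500 per well in 384-well plates and treated by pin tool for 24 h at 37 °C, usually at six 2-fold concentrations from 20 μM to 625 nM. After staining with MitoTracker, concanavalin A, phalloidin, wheat germ agglutinin, Hoechst and SYTO 14, plates were imaged on an Opera Phenix and features were extracted with CellProfiler and normalized to DMSO cells on the same plate. The activity score is the Mahalanobis distance from DMSO wells, and cell count is given relative to DMSO wells. Each value is the mean of four replicate plates.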

U-2 OS [3] = experiment: AUC of culture confluence over time (live-cell imaging) (AUC (confluence % x time)); higher = more confluent culture (less growth inhibition)
Method in brief: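 The value is the area under the curve of confluence plotted against time. U-2 OS cells in F-12K medium with 10% FBS were seeded at 750 per well in 384-well plates, then treated by pin tool 24 h later, most compounds at 20, 10 and 5 μM with 0.2% DMSO. At 37 °C, an Incucyte S3 with a 10x objective imaged the wells every 4 h for up to 60 h.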

U-2 OS [4] = experiment: total intracellular glutathione (GSH + GSSG) relative to DMSO (% of control); higher = more glutathione; settings: 24 h
Method: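 Total intracellular glutathione (GSH + GSSG) in U-2 OS cells by GSH/GSSG-Glo after 24 h compound treatment at 5, 10 and 20 uM (some at 40 and 80 uM), as percent of DMSO control. Five technical replicate plates, averaged.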

U-2 OS [5] = experiment: relative cell count vs DMSO (cell painting) (fraction of DMSO control); higher = more cells remaining (less cytotoxic); settings: 24 h
Method in brief: as §1

U-2 OS [6] = experiment: cell viability (CellTiter-Glo) relative to DMSO (% of control); higher = more viable; settings: 24 h
Method: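 Cell viability of U-2 OS cells by CellTiter-Glo after 24 h compound treatment at 5, 10 and 20 uM (some at 40 and 80 uM), measured in parallel with the glutathione assay, as percent of DMSO control. Five technical replicate plates, averaged.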

Row | Compound | intracellular GSH:GSSG ratio (U-2 OS [1]; 5 µM) | intracellular GSH:GSSG ratio (U-2 OS [1]; 10 µM) | intracellular GSH:GSSG ratio (U-2 OS [1]; 20 µM) | cell painting activity score (U-2 OS [2]; 0.625 µM) | cell painting activity score (U-2 OS [2]; 1.25 µM) | cell painting activity score (U-2 OS [2]; 2.5 µM) | cell painting activity score (U-2 OS [2]; 5 µM) | cell painting activity score (U-2 OS [2]; 10 µM) | cell painting activity score (U-2 OS [2]; 20 µM) | AUC of culture confluence over time (U-2 OS [3]; 5 µM) | AUC of culture confluence over time (U-2 OS [3]; 10 µM) | AUC of culture confluence over time (U-2 OS [3]; 20 µM) | total intracellular glutathione (U-2 OS [4]; 5 µM) | total intracellular glutathione (U-2 OS [4]; 10 µM) | total intracellular glutathione (U-2 OS [4]; 20 µM) | relative cell count (U-2 OS [5]; 0.625 µM) | relative cell count (U-2 OS [5]; 1.25 µM) | relative cell count (U-2 OS [5]; 2.5 µM) | relative cell count (U-2 OS [5]; 5 µM) | relative cell count (U-2 OS [5]; 10 µM) | relative cell count (U-2 OS [5]; 20 µM) | cell viability (U-2 OS [6]; 5 µM) | cell viability (U-2 OS [6]; 10 µM) | cell viability (U-2 OS [6]; 20 µM) | AUC of culture confluence over time (U-2 OS [3]; 0.625 µM) | AUC of culture confluence over time (U-2 OS [3]; 1.25 µM) | AUC of culture confluence over time (U-2 OS [3]; 2.5 µM)
1 | Cc1cc(NC(=O)c2cccc(NC(=O)/C=C/CN(C)C)c2)ccc1Nc1nccc(-c2cccnc2)n1 | 23.3 | 21 | 8.13 | 10.3 | 11.4 | 11 | 10.8 | 11.1 | 13 | 45.6 | 31.1 | 15.2 | 93.9 ± 3.6 | 94.7 ± 6.5 | 72.6 ± 3.4 | 0.888 | 0.863 | 0.841 | 0.839 | 0.742 | 0.425 | 102 ± 7.2 | 98.9 ± 2.7 | 78.6 ± 5.4 |  |  | 
2 | COC[C@H]1OC(=O)c2coc3c2[C@@]1(C)C1=C(C3=O)[C@@H]2CCC(=O)[C@@]2(C)C[C@H]1OC(C)=O | 26.3 | 27.5 | 21.8 | 7.82 ± 1.2 | 8.77 ± 1.2 | 8.96 ± 1.1 | 9.66 ± 1 | 10.4 ± 0.73 | 11.2 ± 0.66 | 49.5 | 38.5 | 28.4 | 85.3 ± 3.2 | 82.6 ± 4 | 76.8 ± 3.8 | 0.905 ± 0.054 | 0.905 ± 0.038 | 0.882 ± 0.07 | 0.873 ± 0.059 | 0.837 ± 0.065 | 0.785 ± 0.058 | 83.6 ± 1.5 | 76 ± 2.8 | 69.3 ± 1.1 | 57.9 | 56.1 | 56.6
3 | C=CC(=O)Nc1cc(Nc2nccc(-c3cn(C)c4ccccc34)n2)c(OC)cc1N(C)CCN(C)C | 22.9 | 12.3 | 7.29 | 10.5 | 8.95 | 9.22 | 9.78 | 13.8 | 17.8 | 39 | 28.4 | 7 | 86.9 ± 3.4 | 77.4 ± 3.5 | 50.4 ± 3.9 | 0.982 | 0.951 | 0.964 | 0.897 | 0.773 | 0.363 | 75.6 ± 3.2 | 55 ± 4 | 35 ± 2.5 |  |  | 
4 | O=C(Nc1nc(-c2ccccc2)ns1)c1cccs1 | 16.9 | 13 | 23.8 | 4.56 | 4.47 | 2.86 | 3.95 | 3.58 | 4.52 | 42.6 | 48.1 | 43.5 | 99.8 ± 3.8 | 98.1 ± 5.4 | 103 ± 7.2 | 0.94 | 0.902 | 0.915 | 0.929 | 0.917 | 0.914 | 95.9 ± 3.4 | 93.5 ± 3.8 | 97.5 ± 1.8 |  |  | 
5 | O=C(NNS(=O)(=O)c1ccccc1)c1cc(-c2ccnnc2)ccc1F | 23.9 | 21.4 | 23.2 | 4.47 | 4.16 | 3.77 | 3.67 | 4.24 | 4.38 | 49.6 | 50 | 49.6 | 98 ± 3.1 | 94.3 ± 3 | 94.6 ± 4.8 | 0.985 | 0.95 | 0.967 | 1.02 | 0.939 | 1.04 | 95.6 ± 5.4 | 87.5 ± 7.7 | 88.5 ± 3.6 |  |  | 
6 | Cn1c(SC2=CS(=O)(=O)c3ccccc32)nnc1-c1ccc(O)cc1 | 10.2 | 4.41 | 2.8 | 6.03 | 8.31 | 10.7 | 13.1 | 16.2 | 13.2 | 22.8 | 21.2 | 22.3 | 113 ± 51 | 82.1 ± 41 | 48.7 ± 27 | 0.933 | 0.993 | 0.903 | 0.761 | 0.527 | 0.379 | 96.8 ± 4.4 | 66 ± 4.1 | 71.2 ± 4.6 |  |  | 
7 | O=C1CCC(=O)N1c1ccc(O)cc1 | 43 | 32.2 | 56.3 | 4.12 | 3.43 | 3.81 | 3.52 | 4.26 | 2.95 | 48.1 | 42.4 | 43.3 | 105 ± 13 | 87.4 ± 4.5 | 102 ± 5.2 | 1.02 | 0.976 | 0.966 | 0.904 | 1.03 | 1.04 | 107 ± 6.3 | 106 ± 7.5 | 105 ± 5.4 |  |  | 
8 | COc1cc2c(c(OC)c1OC)-c1ccc(OC)c(=O)cc1[C@@H](NC(C)=O)CC2 | 3 | 2.46 | 2.47 | 22.4 ± 2.2 | 22 ± 1.8 | 20.7 ± 1.9 | 20.3 ± 2.4 | 21.3 ± 1.8 | 21 ± 1.7 | 20.1 | 19.7 | 22.8 ± 0.82 | 59.7 ± 3.7 | 58.1 ± 4.3 | 60.6 ± 3.2 | 0.215 ± 0.03 | 0.215 ± 0.021 | 0.213 ± 0.02 | 0.209 ± 0.021 | 0.205 ± 0.017 | 0.197 ± 0.018 | 49.1 ± 4 | 52.8 ± 6.9 | 57.8 ± 6.9 | 21.6 | 21.5 | 21
